Assay results as given in ChEMBL document CHEMBL1121391, “Antiamebic amidines and sulfonamides of 5- and 6-amino-2,3-bis(4-alkyl-1-piperazinyl)quinoxalines” (1980).
Calls of active or inactive are those of the source. No cut-off for these calls is given here.

How the values were obtained:
Entamoeba histolytica [1] = assay: (§1) Lowest active dose which cured rats with Entamoeba histolytica cecal infection was measured; format: functional, organism-based
Entamoeba histolytica [2] = assay: as §1; format: functional
Cricetinae gen. sp. = assay: Lowest active dose which cured the hamsters with Entamoeba histolytica hepatic infection was measured; IA means inactive; format: functional, organism-based; settings: Cricetulus griseus
Entamoeba histolytica [3] = assay: Lowest active dose which cured hamsters with Entamoeba histolytica hepatic infection was measured; format: functional

Row | SMILES | Dose (Entamoeba histolytica [1]) | Dose (Entamoeba histolytica [2]) [mg/kg/day] | also measured
1 | CCCN1CCN(c2nc3ccc(N)cc3nc2N2CCN(CCC)CC2)CC1 | inactive |  | 
2 | CN1CCN(c2nc3ccc(N)cc3nc2N2CCN(C)CC2)CC1 |  | 50 | Dose (Cricetinae gen. sp.): inactive
3 | CCCN1CCN(c2nc3ccc(/N=C(\C)N(C)C)cc3nc2N2CCN(CCC)CC2)CC1 | inactive |  | 
4 | CN(C)CCCc1ccc(/C=N/c2ccc3nc(N4CCN(C)CC4)c(N4CCN(C)CC4)nc3c2)cc1 |  | 50 | 
5 | O=[N+]([O-])c1cncn1CCN1CCOCC1 [NIMORAZOLE] |  | 20 | Dose (Entamoeba histolytica [3]): 100 mg/kg/day
6 | CN(C)CCCN1CCN(/C=N/c2ccc3nc(N4CCN(C)CC4)c(N4CCN(C)CC4)nc3c2)CC1 | inactive |  | 
7 | CCCN1CCN(c2nc3cccc(N)c3nc2N2CCN(CCC)CC2)CC1 | inactive |  | 
8 | CC/C(=N\c1cc(Cl)cc2nc(N3CCN(C)CC3)c(N3CCN(C)CC3)nc12)N(C)C | inactive |  | 
9 | CN1CCN(c2nc3ccc(NS(=O)(=O)c4cccc(C(F)(F)F)c4)cc3nc2N2CCN(C)CC2)CC1 | inactive |  | 
10 | C/C(=N\c1ccc2nc(N3CCN(C)CC3)c(N3CCN(C)CC3)nc2c1)N(C)C | inactive |  | 
11 | CCCN1CCN(c2nc3ccc(NS(=O)(=O)c4ccc(C)cc4)cc3nc2N2CCN(CCC)CC2)CC1 | inactive |  | 
12 | CCN(/C=N/c1ccc2nc(N3CCN(C)CC3)c(N3CCN(C)CC3)nc2c1)CC | inactive |  | 
13 | CN(C)/C=N/c1cc(Cl)cc2nc(N3CCN(C)CC3)c(N3CCN(C)CC3)nc12 (stereo in doubt; 21) | inactive |  | 
14 | CCCN1CCN(c2nc3ccc(/N=C/N(C)C)cc3nc2N2CCN(CCC)CC2)CC1 |  | 50 | Dose (Entamoeba histolytica [3]): 100 mg/kg/day
15 | CN1CCN(c2nc3ccc(NS(=O)(=O)c4ccc(Cl)cc4)cc3nc2N2CCN(C)CC2)CC1 | inactive |  | 
16 | CN(C)/C=N/c1ccc2nc(N3CCN(C)CC3)c(N3CCN(C)CC3)nc2c1 |  | 20 | Dose (Entamoeba histolytica [3]): 50 mg/kg/day
17 | CCN(CC)/C(C)=N/c1cc(Cl)cc2nc(N3CCN(C)CC3)c(N3CCN(C)CC3)nc12 | inactive |  | 
18 | C/C(=N\c1cccc2nc(N3CCN(C)CC3)c(N3CCN(C)CC3)nc12)N(C)C | inactive |  | 
19 | CN1CCN(c2nc3cc(Cl)cc(N)c3nc2N2CCN(C)CC2)CC1 | inactive |  | 
20 | CN(C)/C=N/c1cccc2nc(N3CCN(C)CC3)c(N3CCN(C)CC3)nc12 |  | 10 | Dose (Entamoeba histolytica [3]): 50 mg/kg/day
21 | Cc1ccc(S(=O)(=O)Nc2cccc3nc(N4CCN(C)CC4)c(N4CCN(C)CC4)nc23)cc1 | inactive |  | 
22 | Cc1ncc([N+](=O)[O-])n1CCO [METRONIDAZOLE] |  | 10 | Dose (Entamoeba histolytica [3]): 10 mg/kg/day
23 | CN1CCN(/C=N/c2ccc3nc(N4CCN(C)CC4)c(N4CCN(C)CC4)nc3c2)CC1 | inactive |  | 
24 | CC/C(=N\c1ccc2nc(N3CCN(C)CC3)c(N3CCN(C)CC3)nc2c1)N(CC)CC | inactive |  | 
25 | Cc1ccc(S(=O)(=O)Nc2ccc3nc(N4CCN(C)CC4)c(N4CCN(C)CC4)nc3c2)cc1 |  | 50 | Dose (Entamoeba histolytica [3]): 100 mg/kg/day
26 | CC/C(=N\c1cccc2nc(N3CCN(C)CC3)c(N3CCN(C)CC3)nc12)N(C)C | inactive |  | 
27 | CN(C)/C=N/c1cc(Cl)cc2nc(N3CCN(C)CC3)c(N3CCN(C)CC3)nc12 (stereo in doubt; 7) | inactive |  | 
28 | CN1CCN(c2nc3cc(Cl)cc(NS(=O)(=O)c4ccc(Cl)cc4)c3nc2N2CCN(C)CC2)CC1 | inactive |  | 
29 | CN1CCN(c2nc3cccc(N)c3nc2N2CCN(C)CC2)CC1 |  | 50 | Dose (Cricetinae gen. sp.): inactive
30 | CN1CCN(c2nc3ccc(/N=C/N4CCCCC4)cc3nc2N2CCN(C)CC2)CC1 | inactive |  | 
